Source: ChEMBL document CHEMBL1155012, “Modulation of peripheral serotonin levels by novel tryptophan hydroxylase inhibitors for the potential treatment of functional gastrointestinal disorders” (J Med Chem, 2008)

Target: Tryptophan 5-hydroxylase 1 (Homo sapiens) (UniProt P17752)
Assay: Inhibition of TPH1 in human BON cells assessed as inhibition of serotonin biosynthesis

Tryptophan 5-hydroxylase 1 (Homo sapiens), sequence (P17752 whole entry, looked up): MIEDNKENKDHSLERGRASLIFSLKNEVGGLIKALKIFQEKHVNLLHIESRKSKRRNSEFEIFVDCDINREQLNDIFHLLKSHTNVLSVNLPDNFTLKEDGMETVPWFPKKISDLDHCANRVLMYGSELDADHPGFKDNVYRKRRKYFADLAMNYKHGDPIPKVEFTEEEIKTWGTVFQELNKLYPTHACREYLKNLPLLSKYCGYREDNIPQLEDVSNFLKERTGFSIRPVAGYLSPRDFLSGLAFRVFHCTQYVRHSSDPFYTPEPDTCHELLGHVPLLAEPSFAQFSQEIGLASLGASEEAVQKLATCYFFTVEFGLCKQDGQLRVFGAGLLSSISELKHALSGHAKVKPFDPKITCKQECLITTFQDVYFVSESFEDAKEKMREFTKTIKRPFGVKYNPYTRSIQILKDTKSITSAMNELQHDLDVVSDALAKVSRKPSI

Structure (SMILES) | EC50 [nM]
Nc1nc(OC(c2sccc2-c2ccco2)C(F)(F)F)cc(-c2ccc(C[C@H](N)C(=O)O)cc2)n1 (some centres undefined) | 1190
Nc1nc(OC(c2ccccc2-c2ccco2)C(F)(F)F)cc(-c2ccc(C[C@H](N)C(=O)O)cc2)n1 (some centres undefined) | 800
Cc1cccc(-c2ccccc2C(Oc2cc(-c3ccc(C[C@H](N)C(=O)O)cc3)nc(N)n2)C(F)(F)F)c1 (some centres undefined) | 560
Nc1nc(OC(c2ccccc2-n2ccc(C(F)(F)F)n2)C(F)(F)F)cc(-c2ccc(C[C@H](N)C(=O)O)cc2)n1 (some centres undefined) | 750
